Laboratory results: patent US11286263B2, “Macrocyclic fluorine substituted indole derivatives” (The Broad Institute, Inc., priority 2017, dated 2022)
Where “and” joins values, the source holds several entries; their conditions need not be identical. Equal entries are not always repeated. Where two headings read alike, the source gives them in different places.

How the values were obtained:
[1] = system: A2780; experiment: Antiproliferation assay A2780 (Assay 7); assay type: cell-based; details: A2780 cells, CellTiter-Glo, single determinations, read-out: IC50 Antiproli A2780
Procedure, shortened: (§1)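 Luminescent ATP-based viability (CellTiter-Glo) measured after 72 h of compound treatment at 37 °C. A day 0 plate recorded at time zero served as the starting reference for proliferation.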

[2] = system: SUDHL5; experiment: Antiproliferation assay SUDHL5 (Assay 7); assay type: cell-based; details: SUDHL5 cells, CellTiter-Glo, median, read-out: IC50 Antiproli SUDHL5 [M] (median)
Procedure, shortened: as §1

[3] = system: SUDHL5; experiment: Induction of caspase-3/7 activity, SUDHL5 (Assay 4); assay type: cell-based; details: SUDHL5 cells
Procedure, shortened: (§2)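 DLBCL lines treated with compounds for 3 h at 37° C.; caspase-3/7 activity read by Caspase-Glo 3/7 luminescence. Medium-only background subtracted; EC50 fitted with bottom fixed at 1 and top set to reference compound's maximal induction.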

[4] = system: SUDHL10; experiment: Induction of caspase-3/7 activity, SUDHL10 (Assay 4); assay type: cell-based; details: SUDHL10 cells
Procedure, shortened: as §2

[5] = molecular target: BCL-XL (Homo sapiens (Human), UniProt Q07817); experiment: Protein-protein interaction assay BCL-XL/Bad BH3 peptide (BCL-XL assay), TR-FRET; assay type: binding; details: median
BCL-XL, sequence (Q07817 1-212): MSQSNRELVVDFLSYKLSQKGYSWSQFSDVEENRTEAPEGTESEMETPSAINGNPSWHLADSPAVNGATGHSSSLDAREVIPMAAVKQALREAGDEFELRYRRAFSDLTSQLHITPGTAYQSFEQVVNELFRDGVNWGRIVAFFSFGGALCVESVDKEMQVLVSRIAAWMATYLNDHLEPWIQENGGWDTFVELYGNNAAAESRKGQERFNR
Protocol: Assay 2 Protein-Protein Interaction Assay: BCL-XL/Bad BH3 Peptide (BCL-XL Assay)
The dose-dependent inhibition by the compounds described in this invention of the interaction between BCL-XL and the BH3 domain of Bad (both human) was determined using a steady state binding competition assay with time-resolved fluorescence energy transfer (TR-FRET) readout. For that purpose BCL-XL (amino acids 1-212, C-terminal fused to a hexahistidine (6× His) tag (SEQ ID 3) and a synthetic Bad BH3-derived peptide of sequence Biotin-PEG2-PEG2-NLWAAQRYGRELRR-Nle-SDEFVDSFKK-amide (SEQ ID 4) served as protein receptor and tracer ligand respectively. The recombinant BCL-XL protein (expressed in Ecol) was purchased from BPS Bioscience (San Diego, Calif., USA). The Bad BH3-derived peptide can be obtained from e.g. Biosyntan (Berlin, Germany).
In the assay 11 different concentrations of each compound (0.1 nM, 0.33 nM, 1.1 nM, 3.8 nM, 13 nM, 44 nM, 0.15 μM, 0.51 μM, 1.7 μM, 5.9 μM and 20 μM) were typically measured as duplicates in the same microtiter plate. For that, 100-fold concentrated DMSO solutions were prepared by serial dilutions (1:3.4) of a 2 mM stock solution in a clear, 384-well microtiter plate (Greiner Bio-One, Frickenhausen, Germany). From there, 50 nl were transferred in a dark test plate (Greiner Bio-One, Frickenhausen, Germany). The assay was initiated by addition of 2 μl of a 2,5-fold concentrated His-BCL-XL solution (usually for a 1 nM end concentration in 5 μl reaction volume) in aqueous assay buffer [50 mM Tris/HCl pH 7, 100 mM sodium chloride (NaCl), 50 μM potassium fluoride (KF), 0.005% Tween-20, 2 mM DTT, 0.1% bovine gamma globulin (BGG)] to the compounds in the assay plate. This was followed by a 10-minute incubation step at 22° C. for pre-equilibration of the putative complex between His-BCL-XL and the compounds. After that, 3 μl of a 1.67-fold concentrated solution (in assay buffer) consisting of Bad BH3-derived peptide (1 nM end concentration) and TR-FRET detection reagents [1.67 nM anti-His-Eu cryptate and 1.67 nM streptavidin-XL665 (both from Cisbio Bioassays, Codolet, France)], were added.
The mixture was incubated in the dark for one hour at 22° C. and then overnight at 4° C. The formation of BCL-XL/Bad complexes was determined by measuring the resonance energy transfer of the anti-His-Eu-cryptate antibody to the streptavidin-XL665 present in the reaction. For that purpose, the fluorescence emission at 620 nm and 665 nm after excitation at 330-350 nm was measured in a TR-FRET measuring instrument, for instance a Rubystar or a Pherastar (both from BMG Lab Technologies, Offenburg, Germany) or a Viewlux (Perkin-Elmer). The ratio of the emission at 665 nm and at 622 nm was used as indicator of the amount of BCL-XL/Bad complexes present.
The resulting data (ratio) were normalized, taking 0% inhibition as the mean value of control measurements (usually 32 data points) where all reagents were included. In this case 50 nl DMSO were used instead of compounds. A 100% inhibition corresponded to the mean value of control measurements (usually 32 data points) where all reagents except BCL-XL were included. IC50 values were determined by regression analysis based on a 4 parameter equation (minimum, maximum, IC50, Hill; Y=Max+(Min−Max)/(1+(X/IC50)^Hill) using the Screener Software (Genedata).

[6] = Homo sapiens, SU-DHL-5, 3 h, Caspase-Glo 3/7, median
[7] = Homo sapiens, SU-DHL10, 3 h, Caspase-Glo 3/7, median

| SMILES | IC50 ([1]; 72 h, listed as 01) | IC50 ([1]; Homo sapiens, A2780, 72 h) | IC50 ([2]; Homo sapiens, SU-DHL-5, 72 h) | EC50 [3, 6] | EC50 [4, 7] | IC50 [5] | IC50 ([1]; 72 h, listed as 05) | IC50 ([1]; 72 h, listed as 09) | IC50 ([2]; 72 h) | EC50 ([3]; 3 h, Caspase-Glo 3/7, median) | EC50 ([4]; 3 h, Caspase-Glo 3/7, median) |
| --- | --- | --- | --- | --- | --- | --- | --- | --- | --- | --- | --- |
| Cc1c2c(nn1C)COC/C=C\Cn1c(C(=O)O)c(CCCOc3cccc4ccccc34)c3ccc(F)c-2c31 (racemic) [Example 1, (rac)-(11Z)-4-fluoro-2,3-dimethyl-7-[3-(naphthalen-1-yloxy)propyl]-2,10,13,15-tetrahydro-pyrazolo[4′,3′:9,10][1,6]oxazacycloundecino[8,7,6-hi]indole-8-carboxylic acid] | 21100 nM | > 33000 nM | 9e-07 M | 1400 nM | 2500 nM | > 20000 nM |  |  |  |  |  |
| CCc1c2c(nn1C)COC/C=C\Cn1c(C(=O)O)c(CCCOc3cccc4ccccc34)c3ccc(F)c-2c31 (racemic) [Example 5, (rac)-(11Z)-3-ethyl-4-fluoro-2-methyl-7-[3-(naphthalen-1-yloxy)propyl]-2,10,13,15-tetrahydro-pyrazolo[4′,3′:9,10][1,6]oxazacycloundecino[8,7,6-hi]indole-8-carboxylic acid] |  | 25400 nM | 1.7e-06 M | 1000 nM | 3500 nM | > 20000 nM | 28100 nM and 20800 nM and 27700 nM |  |  |  |  |
| Cc1nn(C)c2c1-c1c(F)ccc3c(CCCOc4cccc5ccccc45)c(C(=O)O)n(c13)C/C=C\COC2 (racemic) [Example 9, (rac)-(Z)-13-fluoro-10,12-dimethyl-1-(3-(naphthalen-1-yloxy)propyl)-4,7,9,10-tetrahydro-pyrazolo[4′,3′:9,10][1]oxa[6]azacycloundecino[8,7,6-hi]indole-2-carboxylic acid] |  | 23100 nM | 3.7e-06 M | 2700 nM | 18000 nM | > 20000 nM |  | 20700 nM |  |  |  |
| Cc1cc(OCCCc2c(C(=O)O)n3c4c(c(F)ccc24)-c2c(nn(C)c2C)COCCCC3)cc(C)c1Cl (racemic) [Example 20, (rac)-1-(3-(4-chloro-3,5-dimethylphenoxy)propyl)-13-fluoro-11,12-dimethyl-4,5,6,7,9,11-hexahydropyrazolo[4′,3′:9,10][1]oxa[6]azacycloundecino[8,7,6-hi]indole-2-carboxylic acid] |  |  | 1.1e-06 M | 1400 nM | 4000 nM | > 20000 nM |  |  |  |  |  |
| CCc1nn(C)c2c1-c1c(F)ccc3c(CCCOc4cccc5c4CCCC5)c(C(=O)O)n(c13)CCCCOC2 (racemic) [Example 44, (rac)-12-ethyl-13-fluoro-10-methyl-1-(3-((5,6,7,8-tetrahydronaphthalen-1-yl)oxy)propyl)-4,5,6,7,9,10-hexahydropyrazolo[4′,3′:9,10][1]oxa[6]azacycloundecino[8,7,6-hi]indole-2-carboxylic acid] |  |  | 5.5e-07 M | 1600 nM | 4500 nM | > 20000 nM |  |  |  |  |  |
| CCc1nn(C)c2c1-c1c(F)ccc3c(CCCOc4cc(C)c(Cl)c(C)c4)c(C(=O)O)n(c13)CCCCOC2 (racemic) [Example 46, (rac)-1-(3-(4-chloro-3,5-dimethylphenoxy)propyl)-12-ethyl-13-fluoro-10-methyl-4,5,6,7,9,10-hexahydropyrazolo[4′,3′:9,10][1]oxa[6]azacycloundecino[8,7,6-hi]indole-2-carboxylic acid] |  |  | 2.9e-06 M | 2500 nM | 7700 nM | > 20000 nM |  |  |  |  |  |
| CCc1c2c(nn1C)CN(C)CCCCn1c(C(=O)O)c(CCCOc3cccc4c3CCC4)c3ccc(F)c-2c31 (racemic) [Example 51, (rac)-7-[3-(2,3-dihydro-1H-inden-4-yloxy)propyl]-3-ethyl-4-fluoro-2,14-dimethyl-10,11,12,13,14,15-hexahydro-2H-pyrazolo[3′,4′:8,9][1,6]diazacycloundecino[10,11,1-hi]indole-8-carboxylic acid] |  |  | 2.6e-07 M | 230 nM | 440 nM | > 20000 nM |  |  |  |  |  |
| CCc1c2c(nn1C)CN(C)CCCCn1c(C(=O)O)c(CCCOc3cccc4c3CCCC4)c3ccc(F)c-2c31 (racemic) [Example 52, (rac)-3-ethyl-4-fluoro-2,14-dimethyl-7-[3-(5,6,7,8-tetrahydronaphthalen-1-yloxy)propyl]-10,11,12,13,14,15-hexahydro-2H-pyrazolo[3′,4′:8,9][1,6]diazacycloundecino[10,11,1-hi]indole-8-carboxylic acid] |  |  | 2.3e-07 M | 280 nM | 210 nM | > 20000 nM |  |  |  |  |  |
| CCc1c2c(nn1C)CN(C)CCCCn1c(C(=O)O)c(CCCOc3cccc4cc(F)ccc34)c3ccc(F)c-2c31 (racemic) [Example 53, (rac)-3-ethyl-4-fluoro-7-{3-[(6-fluoro-1-naphthyhoxy]propyl}-2,14-dimethyl-10,11,12,13,14,15-hexahydro-2H-pyrazolo[3′,4′:8,9][1,6]diazacycloundecino[10,11,1-hi]indole-8-carboxylic acid] |  |  | 3.7e-07 M | 380 nM | 490 nM | > 20000 nM |  |  |  |  |  |
| CCc1c2c(nn1C)CN(C)CCCCn1c(C(=O)O)c(CCCOc3cccc4ccccc34)c3ccc(F)c-2c31 (racemic) [Example 54, (rac)-3-ethyl-4-fluoro-2,14-dimethyl-7-[3-(1-naphthyloxy)propyl]-10,11,12,13,14,15-hexahydro-2H-pyrazolo[3′,4′:8,9][1,6]diazacycloundecino[10,11,1-hi]indole-8-carboxylic acid] |  |  | 4.4e-07 M | 230 nM | 680 nM | > 20000 nM |  |  |  |  |  |
| Cc1c2c(nn1C)COCCCCn1c(C(=O)O)c(CCCOc3ccc(F)c4ccccc34)c3ccc(F)c-2c31 (single isomer, unassigned; enantiomer 1) [Example 16, 4-fluoro-7-{3-[(4-fluoronaphthalen-1-yl)oxy]propyl}-2,3-dimethyl-2,10,11,12,13,15-hexahydro-pyrazolo[4′,3′:9,10][1,6]oxazacycloundecino[8,7,6-hi]indole-8-carboxylic acid (enantiomer 1)] |  |  |  |  |  | > 20000 nM |  |  | 9.3e-07 M | 720 nM | 4100 nM |
| CCc1nn(C)c2c1-c1c(F)ccc3c(CCCOc4ccc(F)c5ccccc45)c(C(=O)O)n(c13)CCCCOC2 (single isomer, unassigned; enantiomer 1) [Example 42, 3-ethyl-4-fluoro-7-{3-[(4-fluoronaphthalen-1-yl)oxy]propyl}-1-methyl-1,10,11,12,13,15-hexahydropyrazolo[4′,3′:9,10][1,6]oxazacycloundecino[8,7,6-hi]indole-8-carboxylic acid (enantiomer 1)] |  |  |  |  |  | > 20000 nM |  |  | 2.1e-06 M | 1800 nM | 6300 nM |
